Measured values as given in patent US6218431A, “Substituted biphenyls” (Bayer Corporation, priority 1997, dated 2001).

Tests used:
rat liver membrane [1] = conditions: Collins et al. 1992; cited from earlier work
rat liver membrane [2] = conditions: Collins et al. 1992; cited from earlier work; remark: listed apart in the source
glucagon receptor = target: T1, glucagon receptor (Homo sapiens, UniProt P47871); test: glucagon receptor binding assay (125I-glucagon, CHO-HGR membranes); conditions: 125I-glucagon; 60 min at room temperature; read-out: IC50
T1 construct: expressed in transfected cells; host or cells: Chinese Hamster Ovary cells (CHO-HGR), membranes
Outline: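 Membranes from CHO cells expressing glucagon receptor (10 ug protein) in Tris pH 7.4 buffer with EDTA, BSA and bacitracin, incubated with test compound and 125I-glucagon (9 fmol) 60 min at room temperature. Bound radioactivity counted after filtration; nonspecific binding defined with 1 μM native glucagon; 0.5% DMSO.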

T1 sequence (P47871 26-477): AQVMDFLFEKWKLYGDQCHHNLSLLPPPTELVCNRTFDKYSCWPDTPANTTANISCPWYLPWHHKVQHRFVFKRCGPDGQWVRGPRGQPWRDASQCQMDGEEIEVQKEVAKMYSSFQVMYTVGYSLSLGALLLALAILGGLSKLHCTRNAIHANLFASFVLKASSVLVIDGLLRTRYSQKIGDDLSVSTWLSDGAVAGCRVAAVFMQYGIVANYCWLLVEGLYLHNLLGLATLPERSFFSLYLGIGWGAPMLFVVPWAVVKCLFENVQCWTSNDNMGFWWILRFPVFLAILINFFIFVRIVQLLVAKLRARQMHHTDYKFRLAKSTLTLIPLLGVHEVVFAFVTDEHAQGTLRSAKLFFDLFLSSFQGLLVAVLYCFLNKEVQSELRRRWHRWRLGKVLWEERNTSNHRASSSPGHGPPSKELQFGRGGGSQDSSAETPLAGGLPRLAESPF

SMILES	IC50 (glucagon receptor)	inhibit glucagon binding (rat liver membrane [1])	inhibit glucagon action (rat liver membrane [2])
CN(C)CCCN(C)c1nc2cc(Cl)c(Cl)cc2nc1/C=C/c1ccccc1 [CP-99,711]		micromolar concentrations	micromolar concentrations
Cc1c(F)c(F)c(SCc2c(C(C)C)cc(C(C)C)c(CO)c2-c2ccc(F)cc2)c(F)c1F [Example 286]	18 µM		

Continued, in another order:

IC50 (glucagon receptor)	SMILES	inhibit glucagon binding (rat liver membrane [1])	inhibit glucagon action (rat liver membrane [2])
9 µM	CC(C)c1cc(C(C)C)c(CSc2cc(Cl)cc(Cl)c2)c(-c2ccc(F)cc2)c1CO [Example 285]		
20 µM	CC(C)c1cc(C(C)C)c(CSc2c(F)c(F)c(Cl)c(F)c2F)c(-c2ccc(F)cc2)c1CO [Example 287]		
2 µM	CC(C)c1cc(C(C)C)c(CSc2c(F)c(F)cc(F)c2F)c(-c2ccc(F)cc2)c1CO [Example 288]		
